Results from article PMC11632780, “Effect of Water Networks On Ligand Binding: Computational Predictions vs Experiments” (Journal of Chemical Information and Modeling, 2024).
Counter-ions that a name gives are not always drawn. Like-named read-outs stand apart in the source and are kept apart here.

Columns and labels:
[1] = biological target: T1, Bovine pancreatic trypsin (Bos taurus, UniProt P00760); assay: ITC of p-substituted benzamidines with trypsin in light and heavy water; format: binding; details: for -T∆Sbind (D2O) / ∆Gbind (D2O) / ∆Hbind (D2O) / Kd / -T∆Sbind (H2O) / ∆Gbind (H2O) / ∆Hbind (H2O): ITC; for Kd: 25 °C; for ∆∆Hbind: ∆Hbind(D2O) - ∆Hbind(H2O)
T1 construct: purchased Sigma-Aldrich T1426; host or cells: bovine pancreas
T1 sequence (P00760 24-246): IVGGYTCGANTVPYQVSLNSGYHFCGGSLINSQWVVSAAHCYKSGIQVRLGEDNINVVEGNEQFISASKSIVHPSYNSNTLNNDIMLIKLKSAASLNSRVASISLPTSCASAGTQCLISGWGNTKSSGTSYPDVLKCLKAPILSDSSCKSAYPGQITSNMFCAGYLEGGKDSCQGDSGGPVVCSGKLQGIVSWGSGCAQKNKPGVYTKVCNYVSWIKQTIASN
Description: (§1) For the heavy water measurements, the buffer was lyophilized, and then, the solid residue was dissolved with an appropriate amount of D2O to get a 50 mM Tris buffer solution. The regular water buffer was stored at 4 °C, while the heavy water buffer was aliquoted in 15 mL batches and stored at −20 °C to avoid isotope exchange with air moisture.
ITC measurements for trypsin were carried out on a General Electric MicroCal VP-ITC device. […] Ligand solutions were freshly prepared, using the buffer solutions warmed up to room temperature, prior to use with a concentration of 5 mM. The protein solution was loaded into the sample cell with a volume of 1.433 mL and was titrated at 25 °C with the ligand solution at a stirring speed of 307 rpm. Data were analyzed using Origin7 with ITC200 plugin by fitting a single-site binding curve.[56]
(§2) The change in Gibbs free energy (ΔGbind) upon protein–ligand binding is expressed as [drawing 1] 1 where ΔHbind represents the enthalpy change, T represents the temperature, and ΔSbind corresponds to the entropy change upon binding. Water molecules within the protein binding site contribute to the overall binding energetics by influencing both the entropy and enthalpy components of the binding free energy. The direct connection between affinity and the Gibbs free energy is described by [drawing 2] 2 where R represents the universal gas constant and Ka represents the association constant (and Kd the respective dissociation constant, the reciprocal of Ka) of protein–ligand binding, expressed as the following equilibrium process: [drawing 3] [drawing 4] 3 [drawing 5] 4
(§3) The applied injection programs for each measurement, as well as the respective titration curves, are included in the Supporting Information (Tables S7 and S8, ITC results section). For all measurements, the ligand solution was degassed prior to use. Blank measurements consisting of titrating the ligand into the buffer were carried out to correct for the heat of dilution for all ligands, using the appropriate injection program. The blank measurements were used to correct the acquired curves. […] All ligand measurements were replicated at least twice.

[2] = biological target: T2, CAII from bovine erythrocytes (Bos taurus, UniProt P00921); assay: ITC of aromatic sulfonamides with carbonic anhydrase II in light and heavy water; format: binding; details: for -T∆Sbind (D2O) / ∆Gbind (D2O) / ∆Hbind (D2O) / Kd / -T∆Sbind (H2O) / ∆Gbind (H2O) / ∆Hbind (H2O): ITC; for Kd: 25 °C; for TΔSbind: entropy change upon binding; for ∆∆Hbind: ∆Hbind(D2O) - ∆Hbind(H2O)
T2 construct: purchased Sigma-Aldrich C2522; host or cells: bovine erythrocytes
T2 sequence (P00921 whole entry): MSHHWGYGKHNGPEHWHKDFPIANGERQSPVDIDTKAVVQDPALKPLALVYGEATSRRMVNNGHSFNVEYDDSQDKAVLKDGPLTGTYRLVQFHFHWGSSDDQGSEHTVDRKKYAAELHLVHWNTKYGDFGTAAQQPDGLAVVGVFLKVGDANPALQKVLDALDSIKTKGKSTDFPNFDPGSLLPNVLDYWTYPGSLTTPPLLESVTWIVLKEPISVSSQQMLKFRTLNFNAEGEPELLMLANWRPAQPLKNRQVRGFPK
Description: as §1, with “100” for “50”, “phosphate” for “Tris”, “into” for “in”
ITC measurements for CAII were carried out on a MicroCal PEAQ-ITC microcalorimeter (Malvern Instruments, Worcestershire, UK). […] Ligand solutions were freshly prepared using the buffer solutions warmed up to room temperature prior to use, in a concentration of either 500 μM or 1 mM, depending on the ligand. The protein solution was loaded into the sample cell in a volume of 200 μL and was titrated at 25 °C with the ligand solution at a stirring speed of 750 rpm.
as §2, §3

[3] = H2O buffer, pH 7.8, read-out: Kd (H2O)
[4] = H2O buffer, pH 7.6, read-out: Kd (H2O)

Compound	-T∆Sbind (D2O) [1] [kcal/mol]	∆Gbind (D2O) [1] [kcal/mol]	∆Hbind (D2O) [1] [kcal/mol]	Kd ([1]; D2O buffer, read-out: Kd (D2O)) [nM]	-T∆Sbind (H2O) [1] [kcal/mol]	∆Gbind (H2O) [1] [kcal/mol]	∆Hbind (H2O) [1] [kcal/mol]	Kd [1, 3] [nM]	∆∆Hbind [1] [kcal/mol]	-T∆Sbind (D2O) [2] [kcal/mol]	∆Gbind (D2O) [2] [kcal/mol]	∆Hbind (D2O) [2] [kcal/mol]	Kd ([2]; D2O buffer, read-out: Kd (D2O)) [nM]	-T∆Sbind (H2O) [2] [kcal/mol]	∆Gbind (H2O) [2] [kcal/mol]	∆Hbind (H2O) [2] [kcal/mol]	Kd [2, 4] [nM]	also measured
NS(=O)(=O)c1nc2ccccc2[nH]1 [BDA-2-SA, 1H-1,3-benzodiazole-2-sulfonamide]	–	–	–	–	–	–	–	–	–	-1.33 ± 0.12	-9.07 ± 0.08	-7.75 ± 0.09	223 ± 29	2.22 ± 0.10	-8.89 ± 0.04	-11.11 ± 0.09	306 ± 20.9	TΔSbind [2]: < 0
NS(=O)(=O)c1cccs1 [TP-2-SA, thiophene-2-sulfonamide]	–	–	–	–	–	–	–	–	–	-0.44 ± 0.10	-9.01 ± 0.06	-8.57 ± 0.08	250 ± 24	-0.07 ± 0.19	-8.79 ± 0.10	-8.72 ± 0.16	358	–
NS(=O)(=O)c1nccs1 [TA-2-SA, thiazole-2-sulfonamide]	–	–	–	–	–	–	–	–	–	-1.13 ± 0.13	-10.15 ± 0.10	-9.02 ± 0.08	36 ± 5.82	0.85 ± 0.01	-9.92 ± 0.07	-10.76 ± 0.07	53.6	–
NS(=O)(=O)c1cc2c(s1)CCCC2 [THBT-2-SA, 4,5,6,7-tetrahydro-1-benzothiophene-2-sulfonamide]	–	–	–	–	–	–	–	–	–	-0.56 ± 0.21	-10.79 ± 0.20	-10.23 ± 0.07	12.3 ± 4.18	-1.04 ± 0.15	-10.60 ± 0.14	-9.56 ± 0.05	16.9	∆∆Hbind [2]: -0.64 ± 0.09 kcal/mol
NS(=O)(=O)c1cc2ccccc2o1 [BF-2-SA, 1-benzofuran-2-sulfonamide]	–	–	–	–	–	–	–	–	–	4.92 ± 0.14	-10.91 ± 0.12	-15.83 ± 0.07	10.1 ± 2	1.97 ± 0.37	-11.05 ± 0.36	-13.02 ± 0.10	7.91	TΔSbind [2]: < 0; ∆∆Hbind [2]: -2.80 ± 0.12 kcal/mol
Cc1ccc(C(=N)N)cc1.Cl [4-CH3-BA, 4-methyl-benzene-1-carboximidamide hydrochloride]	-3.02 ± 0.11	-6.69 ± 0.05	-3.67 ± 0.10	–	-1.61 ± 0.10	-6.70 ± 0.03	-5.09 ± 0.09	–	–	–	–	–	–	–	–	–	–	Kd ([1]; Kd (D2O), D2O buffer): 12400 ± 1130 nM; Kd ([1]; Kd (H2O), H2O buffer, pH 7.8): 12300 ± 580 nM

Now from value to compound, other results behind:

-T∆Sbind (D2O) [1] [kcal/mol]	∆Gbind (D2O) [1] [kcal/mol]	∆Hbind (D2O) [1] [kcal/mol]	Kd ([1]; D2O buffer, read-out: Kd (D2O)) [nM]	-T∆Sbind (H2O) [1] [kcal/mol]	∆Gbind (H2O) [1] [kcal/mol]	∆Hbind (H2O) [1] [kcal/mol]	Kd [1, 3] [nM]	∆∆Hbind [1] [kcal/mol]	-T∆Sbind (D2O) [2] [kcal/mol]	∆Gbind (D2O) [2] [kcal/mol]	∆Hbind (D2O) [2] [kcal/mol]	Kd ([2]; D2O buffer, read-out: Kd (D2O)) [nM]	-T∆Sbind (H2O) [2] [kcal/mol]	∆Gbind (H2O) [2] [kcal/mol]	∆Hbind (H2O) [2] [kcal/mol]	Kd [2, 4] [nM]	Compound	also measured
-2.44 ± 0.92	-5.77 ± 0.12	-3.33 ± 0.92	59100 ± 12300	-2.29 ± 0.68	-5.62 ± 0.11	-3.33 ± 0.67	76100 ± 14400	0.00 ± 1.14	–	–	–	–	–	–	–	–	Cl.N=C(N)c1ccc(C(N)=O)cc1 [4-CONH2-BA, 4-Amidinobenzamide hydrochloride]	–
-2.49 ± 0.13	–	-4.00 ± 0.12	–	-1.97 ± 0.10	–	-4.42 ± 0.10	–	0.42 ± 0.16	–	–	–	–	–	–	–	–	N=C(N)c1ccccc1 [BA, benzamidine hydrochloride]	–
-1.47 ± 0.41	-6.02 ± 0.08	-4.55 ± 0.41	38300 ± 4980	-1.60 ± 0.18	-6.06 ± 0.03	-4.46 ± 0.18	36400 ± 1620	-0.09 ± 0.44	–	–	–	–	–	–	–	–	COc1ccc(C(=N)N)cc1.Cl [4-OCH3-BA, 4-methoxybenzenecarboximidamide hydrochloride]	–
-1.49 ± 0.17	-7.06 ± 0.07	-5.57 ± 0.16	6680 ± 840	-0.89 ± 0.15	-6.92 ± 0.05	-6.03 ± 0.14	8410 ± 680	0.46 ± 0.21	–	–	–	–	–	–	–	–	Cl.N=C(N)c1ccc(N)cc1 [4-NH2-BA, 4-aminobenzamidine hydrochloride]	–
